Data taken from ChEMBL document CHEMBL1649420, “Identifying chelators for metalloprotein inhibitors using a fragment-based approach” (J Med Chem, 2011).

Key:
[1] = target: Matrix metalloproteinase-9 (Homo sapiens) (UniProt P14780); settings: at 1 mM;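 note: recombinant human MMP9, activity read after 30 min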
[2] = target: Stromelysin-1 (Homo sapiens) (UniProt P08254); settings: at 1 mM;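 note: recombinant enzyme, inhibition read after a 30 min incubation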
[3] = target: T1, Interstitial collagenase (Homo sapiens) (UniProt P03956); settings: at 1 mM;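 note: recombinant human enzyme, with inhibition measured after 30 min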
T1 sequence (whole entry): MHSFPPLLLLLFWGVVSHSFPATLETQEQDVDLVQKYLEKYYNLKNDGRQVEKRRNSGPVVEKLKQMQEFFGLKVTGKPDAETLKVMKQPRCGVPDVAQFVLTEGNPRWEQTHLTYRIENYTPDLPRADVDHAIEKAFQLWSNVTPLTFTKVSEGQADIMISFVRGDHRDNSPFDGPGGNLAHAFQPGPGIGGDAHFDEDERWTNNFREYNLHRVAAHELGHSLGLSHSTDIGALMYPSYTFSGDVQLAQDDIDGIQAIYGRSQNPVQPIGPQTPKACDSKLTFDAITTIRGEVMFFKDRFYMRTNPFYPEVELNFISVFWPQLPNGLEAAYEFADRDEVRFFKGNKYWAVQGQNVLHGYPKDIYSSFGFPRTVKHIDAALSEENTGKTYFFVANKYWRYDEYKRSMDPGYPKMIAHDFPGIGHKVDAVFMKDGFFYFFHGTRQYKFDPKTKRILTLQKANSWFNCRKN

[4] = target: Neutrophil collagenase (Homo sapiens) (UniProt P22894); settings: at 1 mM;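 note: recombinant human MMP8 enzyme, percent inhibition read after 30 min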
Chain of Neutrophil collagenase (Homo sapiens) (P22894 101-467 limits assumed): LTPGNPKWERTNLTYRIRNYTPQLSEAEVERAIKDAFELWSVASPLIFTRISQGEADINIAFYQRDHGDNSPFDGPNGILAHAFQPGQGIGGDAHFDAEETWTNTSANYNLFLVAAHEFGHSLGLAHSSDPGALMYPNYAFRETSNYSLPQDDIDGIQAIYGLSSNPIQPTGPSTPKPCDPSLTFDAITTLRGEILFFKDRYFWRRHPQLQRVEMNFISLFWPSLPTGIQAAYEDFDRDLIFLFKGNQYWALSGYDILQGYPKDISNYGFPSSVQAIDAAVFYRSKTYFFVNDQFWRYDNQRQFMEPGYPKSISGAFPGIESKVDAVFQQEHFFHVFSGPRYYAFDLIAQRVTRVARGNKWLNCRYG

[5] = target: T2, Polyunsaturated fatty acid 5-lipoxygenase (Homo sapiens) (UniProt P09917); assay: Inhibition of human recombinant 5-lipoxygenase at 1 mM after 10 mins by fluorescence assay
T2 sequence (whole entry): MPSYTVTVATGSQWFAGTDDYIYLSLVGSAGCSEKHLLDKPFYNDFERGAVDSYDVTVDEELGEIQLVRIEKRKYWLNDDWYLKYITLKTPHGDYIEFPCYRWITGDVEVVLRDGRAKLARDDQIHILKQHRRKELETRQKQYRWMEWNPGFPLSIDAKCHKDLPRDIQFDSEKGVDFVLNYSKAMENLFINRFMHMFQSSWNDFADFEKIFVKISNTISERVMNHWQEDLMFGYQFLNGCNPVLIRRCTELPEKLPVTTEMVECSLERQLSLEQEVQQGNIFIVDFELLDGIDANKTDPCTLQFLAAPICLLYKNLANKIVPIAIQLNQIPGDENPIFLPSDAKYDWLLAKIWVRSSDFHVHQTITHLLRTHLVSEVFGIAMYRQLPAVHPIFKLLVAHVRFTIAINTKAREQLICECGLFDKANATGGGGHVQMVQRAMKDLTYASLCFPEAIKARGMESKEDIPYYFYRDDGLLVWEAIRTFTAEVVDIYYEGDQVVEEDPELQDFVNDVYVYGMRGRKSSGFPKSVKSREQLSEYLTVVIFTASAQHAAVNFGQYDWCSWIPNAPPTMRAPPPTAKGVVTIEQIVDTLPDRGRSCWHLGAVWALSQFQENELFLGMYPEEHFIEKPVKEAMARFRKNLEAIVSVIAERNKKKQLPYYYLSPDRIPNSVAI

[6] = target: T3, Tyrosinase (Agaricus bisporus) (UniProt O42713); settings: at 1 mM;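 note: inhibition measured at 10 min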
T3 sequence (whole entry): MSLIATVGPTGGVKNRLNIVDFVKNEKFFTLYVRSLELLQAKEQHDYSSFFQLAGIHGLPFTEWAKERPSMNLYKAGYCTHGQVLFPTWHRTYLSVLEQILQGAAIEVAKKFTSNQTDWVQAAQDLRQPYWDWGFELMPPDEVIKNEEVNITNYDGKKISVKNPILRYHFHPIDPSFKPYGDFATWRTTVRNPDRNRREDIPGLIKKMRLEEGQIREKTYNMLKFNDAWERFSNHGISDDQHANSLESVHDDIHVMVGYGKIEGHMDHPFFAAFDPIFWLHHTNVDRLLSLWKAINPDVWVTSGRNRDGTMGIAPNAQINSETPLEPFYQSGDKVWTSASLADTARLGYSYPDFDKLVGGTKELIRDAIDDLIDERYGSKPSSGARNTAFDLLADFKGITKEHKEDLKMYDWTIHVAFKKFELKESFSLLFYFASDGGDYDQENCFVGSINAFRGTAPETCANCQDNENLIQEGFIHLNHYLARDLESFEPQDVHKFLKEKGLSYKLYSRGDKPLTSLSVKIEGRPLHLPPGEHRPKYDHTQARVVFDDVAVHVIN

[7] = target: T4, Nitric oxide synthase, inducible (Mus musculus) (UniProt P29477); settings: at 1 mM;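 note: recombinant enzyme, activity read out colorimetrically after 40 min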
T4 sequence (whole entry): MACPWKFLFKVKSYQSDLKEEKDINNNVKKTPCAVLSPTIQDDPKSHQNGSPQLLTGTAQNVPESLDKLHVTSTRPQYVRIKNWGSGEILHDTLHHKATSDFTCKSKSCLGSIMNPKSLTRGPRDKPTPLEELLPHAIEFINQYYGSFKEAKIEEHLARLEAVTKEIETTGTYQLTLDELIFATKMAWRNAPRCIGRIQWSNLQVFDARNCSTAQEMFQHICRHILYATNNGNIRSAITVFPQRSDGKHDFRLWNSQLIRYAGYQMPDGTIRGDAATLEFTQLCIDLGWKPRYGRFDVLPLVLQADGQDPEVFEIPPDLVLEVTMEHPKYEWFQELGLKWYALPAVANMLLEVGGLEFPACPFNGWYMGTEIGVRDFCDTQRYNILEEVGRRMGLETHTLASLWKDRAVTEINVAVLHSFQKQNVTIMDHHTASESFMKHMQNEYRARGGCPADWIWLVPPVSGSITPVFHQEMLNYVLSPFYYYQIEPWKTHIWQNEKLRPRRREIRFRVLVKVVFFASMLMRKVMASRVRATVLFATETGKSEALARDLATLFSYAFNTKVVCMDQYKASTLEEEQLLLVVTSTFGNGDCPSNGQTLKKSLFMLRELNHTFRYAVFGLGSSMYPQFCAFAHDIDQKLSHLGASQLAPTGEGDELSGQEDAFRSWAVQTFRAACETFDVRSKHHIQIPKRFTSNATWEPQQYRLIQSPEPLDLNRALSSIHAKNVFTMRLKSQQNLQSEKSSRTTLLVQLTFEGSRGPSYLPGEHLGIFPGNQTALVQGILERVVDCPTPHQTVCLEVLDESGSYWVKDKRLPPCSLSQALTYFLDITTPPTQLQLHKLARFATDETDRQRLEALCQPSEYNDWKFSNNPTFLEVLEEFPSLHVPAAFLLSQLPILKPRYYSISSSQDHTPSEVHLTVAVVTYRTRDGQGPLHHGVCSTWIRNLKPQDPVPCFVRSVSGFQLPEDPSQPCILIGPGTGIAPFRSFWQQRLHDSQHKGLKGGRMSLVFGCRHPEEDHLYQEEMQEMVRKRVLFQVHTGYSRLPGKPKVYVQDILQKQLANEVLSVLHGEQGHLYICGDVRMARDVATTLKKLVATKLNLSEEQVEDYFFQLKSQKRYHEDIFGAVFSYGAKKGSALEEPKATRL

Chain of Stromelysin-1 (Homo sapiens) (P08254 100-477 limits assumed): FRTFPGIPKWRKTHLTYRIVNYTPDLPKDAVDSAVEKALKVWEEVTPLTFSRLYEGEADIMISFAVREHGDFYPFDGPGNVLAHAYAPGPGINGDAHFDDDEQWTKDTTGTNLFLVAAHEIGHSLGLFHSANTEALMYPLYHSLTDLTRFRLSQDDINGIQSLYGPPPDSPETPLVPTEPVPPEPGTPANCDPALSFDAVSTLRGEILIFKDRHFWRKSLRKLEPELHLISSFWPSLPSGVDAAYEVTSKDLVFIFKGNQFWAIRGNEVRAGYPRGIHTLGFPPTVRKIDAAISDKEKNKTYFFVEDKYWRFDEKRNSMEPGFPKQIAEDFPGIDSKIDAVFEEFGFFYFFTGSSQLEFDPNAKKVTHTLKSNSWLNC
Chain of Matrix metalloproteinase-9 (Homo sapiens) (P14780 whole entry): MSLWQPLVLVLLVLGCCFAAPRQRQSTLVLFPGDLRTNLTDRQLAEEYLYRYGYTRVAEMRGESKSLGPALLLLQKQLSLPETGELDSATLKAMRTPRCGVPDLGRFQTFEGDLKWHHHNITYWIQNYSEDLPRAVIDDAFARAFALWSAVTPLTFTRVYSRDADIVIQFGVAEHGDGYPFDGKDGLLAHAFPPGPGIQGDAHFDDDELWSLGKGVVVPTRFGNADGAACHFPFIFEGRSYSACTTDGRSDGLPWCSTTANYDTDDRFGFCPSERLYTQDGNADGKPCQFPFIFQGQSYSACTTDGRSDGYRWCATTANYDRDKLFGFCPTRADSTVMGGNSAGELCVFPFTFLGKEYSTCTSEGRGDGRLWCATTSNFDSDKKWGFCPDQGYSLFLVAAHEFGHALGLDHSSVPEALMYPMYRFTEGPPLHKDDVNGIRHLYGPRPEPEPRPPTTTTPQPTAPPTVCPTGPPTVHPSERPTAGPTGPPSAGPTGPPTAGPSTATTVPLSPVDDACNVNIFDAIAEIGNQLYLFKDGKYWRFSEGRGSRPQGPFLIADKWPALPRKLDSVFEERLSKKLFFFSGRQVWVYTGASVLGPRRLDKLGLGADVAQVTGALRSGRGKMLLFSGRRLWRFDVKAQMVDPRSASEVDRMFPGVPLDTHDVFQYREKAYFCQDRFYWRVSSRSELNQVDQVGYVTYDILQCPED

Row | Structure (SMILES) | inhibition [1] | inhibition [2] | inhibition [3] | inhibition [4] | inhibition [5] | inhibition [6] | inhibition [7]
1 | O=C(O)c1ncccc1O | 19% | 56% | 55% | 56% | 17% | 87% | 46%
2 | CC(=O)C(C)C(C)=O | -4% | -1% | 10% | 3% | 64% | 67% | 7%
3 | CC(=O)C1CCCC1=O (configuration not stated) | 25% | 4% | 38% | 37% | 79% | 83% | 29%
4 | Cn1cccc(O)c1=O | 8% | -3% | 17% | 13% | 88% | -6% | -5%
5 | O=C(O)c1nccc2ccccc12 | 26% | 67% | 32% | 13% | 18% | 72% | 13%
6 | O=C(O)c1cc(F)ccc1O | 21% | -2% | -7% | -1% | 49% | 98% | 1%
7 | CCn1ccc(=O)c(O)c1C | 10% | -8% | 19% | 29% | 80% | 9% | -9%
8 | Nc1ccc(C(=O)O)c(O)c1 | 24% | 4% | -7% | 8% | 60% | 55% | 8%
9 | O=C(O)c1ccccn1 | 0% | 99% | 3% | 30% | 16% | 74% | 6%
10 | Nc1cc(=O)nc(N)[nH]1 | 2% | 14% | 3% | 4% | 65% | 18% | 7%
11 | Nc1[nH]cnc2ncnc1-2 | -3% | 10% | 17% | 9% | 9% | 11% | 6%
